Reference: the NIST ThermoML archive (doi:10.1016/j.jct.2014.04.022)
Where “and” joins values, the source holds several entries; their conditions need not be identical. Equal entries are not always repeated.

Experiments:
[1] = Molar enthalpy of transition or fusion; details: Crystal; DSC
[2] = molar heat capacity at constant pressure; details: 101.33 kPa

CC12CCC(CC1)C(C)(C)O2 [1,3,3-trimethyl-2-oxabicyclo[2.2.2]octane]
Details | vapor or sublimation pressure
238.2 K, Crystal, Closed cell (Static) method | 0.00051 kPa and 0.000512 kPa
243.2 K, Crystal, Closed cell (Static) method | 0.001022 kPa and 0.001023 kPa
248.15 K, Crystal, Closed cell (Static) method | 0.00197 kPa and 0.001971 kPa and 0.001972 kPa
253.15 K, Crystal, Closed cell (Static) method | 0.003705 kPa and 0.003709 kPa and 0.003703 kPa
253.15 K, Metastable liquid, Closed cell (Static) method | 0.006217 kPa and 0.006221 kPa and 0.006222 kPa
258.15 K, Crystal, Closed cell (Static) method | 0.006771 kPa and 0.006776 kPa and 0.006782 kPa
258.15 K, Metastable liquid, Closed cell (Static) method | 0.01 kPa and 0.01001 kPa
263.15 K, Crystal, Closed cell (Static) method | 0.01211 kPa
263.15 K, Metastable liquid, Closed cell (Static) method | 0.01574 kPa and 0.01575 kPa and 0.01576 kPa
268.15 K, Crystal, Closed cell (Static) method | 0.02109 kPa and 0.0211 kPa
268.15 K, Metastable liquid, Closed cell (Static) method | 0.02431 kPa [middle of 4 runs]
273.15 K, Crystal, Closed cell (Static) method | 0.03596 kPa and 0.03597 kPa
273.65 K, Metastable liquid, Closed cell (Static) method | 0.03833 kPa and 0.03835 kPa and 0.03836 kPa
278.15 K, Closed cell (Static) method, Liquid | 0.05478 kPa and 0.0548 kPa
283.15 K, Closed cell (Static) method, Liquid | 0.0801 kPa and 0.08012 kPa
288.15 K, Closed cell (Static) method, Liquid | 0.1151 kPa and 0.1152 kPa
293.15 K, Closed cell (Static) method, Liquid | 0.1637 kPa
298.15 K, Closed cell (Static) method, Liquid | 0.2295 kPa and 0.2296 kPa
303.15 K, Closed cell (Static) method, Liquid | 0.3169 kPa and 0.317 kPa

Details | Normal melting temperature [°C]
Crystal, DTA | 1.0

Details | Molar enthalpy of transition or fusion [kcal/mol]
[1] | 3.3

[2]
Details | molar heat capacity at constant pressure [J/K/mol]
273.4 K, Metastable liquid, Large sample (1 g) DSC | 257.8
278.5 K, Large sample (1 g) DSC, Liquid | 260.2
283.6 K, Large sample (1 g) DSC, Liquid | 262.3
288.7 K, Large sample (1 g) DSC, Liquid | 264.6
293.8 K, Large sample (1 g) DSC, Liquid | 267.3
298.9 K, Large sample (1 g) DSC, Liquid | 270.7
304 K, Large sample (1 g) DSC, Liquid | 273.3
309.1 K, Large sample (1 g) DSC, Liquid | 276.1
314.2 K, Large sample (1 g) DSC, Liquid | 279.3
319.4 K, Large sample (1 g) DSC, Liquid | 281.4
324.5 K, Large sample (1 g) DSC, Liquid | 284.6
329.6 K, Large sample (1 g) DSC, Liquid | 288
334.7 K, Large sample (1 g) DSC, Liquid | 290.9
339.8 K, Large sample (1 g) DSC, Liquid | 294.2
344.9 K, Large sample (1 g) DSC, Liquid | 297.3
350 K, Large sample (1 g) DSC, Liquid | 301.2
355.1 K, Large sample (1 g) DSC, Liquid | 304.6

CC1=CC[C@@H]2[C@H](C1)C2(C)C [(+)-3-carene]
Details | molar heat capacity at constant pressure [J/K/mol] | vapor or sublimation pressure
238.2 K, Liquid, Closed cell (Static) method | – | 0.00159 kPa and 0.001592 kPa and 0.001594 kPa
243.2 K, Liquid, Closed cell (Static) method | – | 0.002721 kPa and 0.002723 kPa
248.15 K, Liquid, Closed cell (Static) method | – | 0.004526 kPa and 0.004529 kPa
253.15 K, Liquid, Closed cell (Static) method | – | 0.007382 kPa and 0.007383 kPa and 0.007377 kPa
258.15 K, Liquid, Closed cell (Static) method | – | 0.01179 kPa and 0.0118 kPa
263.15 K, Liquid, Closed cell (Static) method | – | 0.01845 kPa and 0.01846 kPa
268.15 K, Liquid, Closed cell (Static) method | – | 0.02832 kPa and 0.02833 kPa
273.15 K, Liquid, Closed cell (Static) method | – | 0.04266 kPa and 0.04267 kPa
273.65 K, Liquid, Closed cell (Static) method | – | 0.0444 kPa and 0.04442 kPa and 0.04443 kPa
278.15 K, Liquid, Closed cell (Static) method | – | 0.06318 kPa and 0.06319 kPa
283.15 K, Liquid, Closed cell (Static) method | – | 0.09204 kPa and 0.09205 kPa
288.15 K, Liquid, Closed cell (Static) method | – | 0.1321 kPa
293.15 K, Liquid, Closed cell (Static) method | – | 0.1868 kPa
298.15 K, Liquid, Closed cell (Static) method | – | 0.2604 kPa and 0.2605 kPa
303.15 K, Liquid, Closed cell (Static) method | – | 0.3585 kPa
308.15 K, Liquid, Closed cell (Static) method | – | 0.4873 kPa
[2], 258.1 K, Liquid | 235.6 | –
[2], 263.2 K, Liquid | 237.8 | –
[2], 268.3 K, Liquid | 240.2 | –
[2], 273.4 K, Liquid | 242.4 | –
[2], 278.5 K, Liquid | 244.9 | –
[2], 283.6 K, Liquid | 247.2 | –
[2], 288.7 K, Liquid | 249.6 | –
[2], 293.8 K, Liquid | 251.9 | –
[2], 298.9 K, Liquid | 254.3 | –
[2], 304 K, Liquid | 256.6 | –
[2], 309.1 K, Liquid | 259 | –
[2], 314.2 K, Liquid | 261.4 | –
[2], 319.4 K, Liquid | 263.7 | –
[2], 324.5 K, Liquid | 266.3 | –
[2], 329.6 K, Liquid | 268.9 | –
[2], 334.7 K, Liquid | 271.5 | –
[2], 339.8 K, Liquid | 274 | –
[2], 344.9 K, Liquid | 276.6 | –
[2], 350 K, Liquid | 279.3 | –
[2], 355.1 K, Liquid | 281.8 | –

Liquid
Details | vapor or sublimation pressure
273.15 K | 0.04241 kPa and 0.04243 kPa and 0.04244 kPa
278.15 K | 0.06282 kPa and 0.06283 kPa
283.15 K | 0.09152 kPa and 0.09153 kPa and 0.09154 kPa
288.15 K | 0.1313 kPa
293.15 K | 0.1855 kPa
298.15 K | 0.2584 kPa and 0.2585 kPa
303.15 K | 0.3553 kPa
308.15 K | 0.4825 kPa

[2], Liquid, Large sample (1 g) DSC
Details | molar heat capacity at constant pressure [J/K/mol]
260.1 K | 236.9
265 K | 239.2
270 K | 241.6
275 K | 244.1
280 K | 246.3
285 K | 248.4
290 K | 250.6
295 K | 252.6
300 K | 254.8
305 K | 257.2
310 K | 259.6

C[C@H]1CC[C@H]2C[C@@H]1C2(C)C [(-)-trans-pinane]
Liquid, Closed cell (Static) method
Details | vapor or sublimation pressure
238.15 K | 0.002871 kPa and 0.002872 kPa
243.15 K | 0.004792 kPa and 0.004794 kPa
248.15 K | 0.007832 kPa and 0.007836 kPa and 0.007837 kPa
253.15 K | 0.0125 kPa
258.15 K | 0.01954 kPa
263.15 K | 0.02999 kPa and 0.03 kPa
268.15 K | 0.04518 kPa and 0.0452 kPa
273.15 K | 0.06684 kPa and 0.06685 kPa and 0.06686 kPa
273.65 K | 0.06947 kPa
278.15 K | 0.09731 kPa and 0.09732 kPa
283.15 K | 0.1394 kPa
288.15 K | 0.1968 kPa
293.15 K | 0.2741 kPa
298.15 K | 0.3766 kPa and 0.3767 kPa
303.15 K | 0.5114 kPa
308.15 K | 0.6862 kPa and 0.6863 kPa

[2], Liquid, Large sample (1 g) DSC
Details | molar heat capacity at constant pressure [J/K/mol]
258.1 K | 227.6
263.2 K | 230.3
268.3 K | 233.4
273.4 K | 236.3
278.5 K | 239.3
283.6 K | 242.3
288.7 K | 245.3
293.8 K | 248.3
298.9 K | 251.3
304 K | 254.3
309.1 K | 257.4

C=C(C)[C@H]1CC=C(C)CC1 [(R)-1-methyl-4-(1-methylethenyl)cyclohexene]
Liquid, Closed cell (Static) method
Details | vapor or sublimation pressure
238.2 K | 0.001012 kPa and 0.001013 kPa
243.2 K | 0.001755 kPa and 0.001756 kPa
248.15 K | 0.002958 kPa and 0.002959 kPa and 0.00296 kPa
253.15 K | 0.00489 kPa and 0.004891 kPa and 0.004889 kPa
258.15 K | 0.0079 kPa and 0.007901 kPa
263.15 K | 0.01251 kPa and 0.01252 kPa
268.15 K | 0.01942 kPa
273.15 K | 0.02957 kPa
273.65 K | 0.0308 kPa and 0.03082 kPa
278.15 K | 0.04422 kPa
283.15 K | 0.06502 kPa and 0.06504 kPa and 0.06505 kPa
288.15 K | 0.09414 kPa and 0.09416 kPa
293.15 K | 0.1343 kPa
298.15 K | 0.1888 kPa and 0.1889 kPa
303.15 K | 0.262 kPa
308.15 K | 0.3589 kPa

C=C(C)[C@@H]1CC=C(C)CC1 [(S)-1-methyl-4-(1-methylethenyl)cyclohexene]
Liquid, Closed cell (Static) method
Details | vapor or sublimation pressure
273.65 K | 0.03073 kPa and 0.03074 kPa and 0.03075 kPa
278.15 K | 0.0441 kPa and 0.04411 kPa
283.15 K | 0.06487 kPa and 0.06488 kPa and 0.0649 kPa
288.15 K | 0.09392 kPa and 0.09395 kPa
293.15 K | 0.1339 kPa
298.15 K | 0.1883 kPa
303.15 K | 0.2609 kPa and 0.261 kPa
308.15 K | 0.3575 kPa and 0.3576 kPa

[2], Liquid, Large sample (1 g) DSC
Details | molar heat capacity at constant pressure [J/K/mol]
260.1 K | 240.3
265 K | 242.5
270 K | 244.8
275 K | 247.1
280 K | 249.2
285 K | 251.3
290 K | 253.4
295 K | 255.8
300 K | 257.8
305 K | 260.2
310 K | 262.5
